Like-named read-outs stand apart in the source and are kept apart here.
How the values were obtained:
[1] = tested on: E. coli biofilm; test: Photoinactivation of 48-hour in vitro biofilms by adjuvant/antibiotic + antimicrobial blue light; format: cell-based, Escherichia coli
Procedure: The bacterial suspension was grown in a shaking incubator overnight in BHI broth. Cells were collected by centrifugation at 4,000 rpm for 5 minutes and suspended in PBS at a density of 10^6 CFU/mL. Then, the biofilms were grown for 48 hours (unless otherwise specified) in 96-well microtiter plates as described previously [Ref. 27], with a renewal of the media every 24 hours. Following the 48-hour biofilm growth, fresh 200 μL of PBS with or without menadione in different concentrations were added to the wells and the biofilms were incubated in the dark at 25° C. for 1 hour: 0, 0.5, 1, and 2 μg/mL for MRSA USA300, AF0001, IQ0064; 0, 1, 10, 30 and 50 μg/mL for P. aeruginosa PA01; and 0, 100, and 150 μg/mL for E. coli ATCC 25922. After that, the control and the menadione-treated biofilms were maintained without irradiation (“menadione/dark”). Simultaneously, the aBL was delivered to the other biofilm groups testing different power densities (50, 30, 15, and 10 mW/cm^2) while keeping the same radiant exposure of 250 J/cm^2. After the light exposure, the biofilms were carefully washed two times with PBS and 200 μL of PBS was added to each well. Then, the bacterial biofilms in each well were harvested by scratching with a sterile pipette tip and three wells of each group were pooled together in a 1.5 mL microcentrifuge tube. The total volume obtained, 600 μL (3 wells), was sonicated using a Branson 2510 Water Bath Sonicator (Marshall Scientific, LLC) for 5 minutes and the CFU was determined by 10-fold serial dilutions in PBS on BHI agar plates. CFU was counted after overnight incubation at 37° C. Experiments were performed in triplicate.
A bacterial suspension was grown in a shaking incubator overnight in BHI broth. Cells were collected by centrifugation at 4,000 rpm for 5 minutes and suspended in PBS at a density of 10^6 CFU/mL. Then, the biofilms were grown for 48 hours in 96-well microtiter plates with a renewal of the media every 24 hours. Following the 48-hour biofilm growth, fresh 200 μL of PBS with the tetracyclines minocycline, doxycycline, and demeclocycline in different concentrations were added to the wells and the biofilms were incubated in the dark at 25° C. for 1 hour: 0, 0.25, 0.5, and 1 μg/mL for minocycline; 0, 0.5, 1, and 2 μg/mL for doxycycline; and 0, 0.5, 1, and 2 for demeclocycline. After that, the control and the tetracycline-treated biofilms were maintained without irradiation (“menadione/dark”). […] The total volume obtained, 600 μL (3 wells), was sonicated using a Branson 2510 Water Bath Sonicator (Marshall Scientific, LLC) for 5 minutes and the CFU/mL was determined by 10-fold serial dilutions in PBS on BHI agar plates. CFU was counted after overnight incubation at 37° C.

[2] = ROS probes (DCF-DA, SOSG, HPF) in the absence of bacteria
Procedure: 1.2.9.1 General ROS measured by […] (DCFH-DA) assay: DCF-DA was purchased from Thermofisher. […] The production of ROS by menadione when combined with blue light was measured in the presence and absence of bacteria. The bacteria (MRSA) was grown in BHI broth medium with shaking overnight. Cells were collected by centrifugation at 4,000 rpm for 5 minutes and resuspended in PBS in the stationary growth phase culture of 1×10^8 CFU/mL. The microbial suspension was transferred to a 35×12-mm dish, mixed with 10 μg/mL of menadione, and stained with 10 μM DCFH-DA solution per the manufacturer's instruction. The solutions (with and without bacteria) were irradiated with the blue light at 50 mW/cm^2 and the samples were collected every 15 minutes to be analyzed by Microplate Spectrofluorometer (SPECTRAmax®, Molecular Devices, USA) at λex=495 nm and λem=525 nm. The control and the menadione/dark groups were generated under the same conditions without irradiation.
To do so, the production of ROS by menadione combined with blue light was measured by different ROS probes, DCF-DA, SOSG and HPF, in the presence and absence of MRSA. […] Oxidation of these probes can be detected by monitoring the increasing of fluorescence signals. […]

[3] = tested on: E. coli; test: MIC of menadione by broth microdilution, with or without aBL; format: cell-based, Escherichia coli ATCC 25922
Procedure: The MICs of menadione in different bacterial strains were determined by a standard broth microdilution assay according to the Clinical and Laboratory Standards Institute. Briefly, menadione was prepared at 100 mg/mL in Tween 80/DMSO (1:1) as a stock solution. The stock solution was diluted to 2048 μg/mL in BHI and then serial dilutions were performed to 1024-0.015 μg/mL in a 96-well plate. Then, a 10 μL stationary growth-phase culture of 10^8 CFU/mL bacteria in BHI broth was added to the 96-well plate containing the serial dilutions of menadione. The medium containing a similar amount of Tween 80/DMSO (1:1) served as a control. The microplates were incubated at 37° C. for 24 hours and the lowest concentration of the compound capable of completely inhibiting bacterial growth was referred to as the MIC.
However, we investigated the effects of aBL (50 mW/cm^2) in potentiating the antibacterial activities of menadione in the three strains of bacteria. […] The highest fluence that we investigated was 125 J/cm^2, when we irradiated the bacteria for 42 minutes.

[4] = biological target: NLRP3 inflammasome (Homo sapiens, UniProt Q96P20); conditions: cited from earlier work
Chain of NLRP3 inflammasome (Q96P20 whole entry): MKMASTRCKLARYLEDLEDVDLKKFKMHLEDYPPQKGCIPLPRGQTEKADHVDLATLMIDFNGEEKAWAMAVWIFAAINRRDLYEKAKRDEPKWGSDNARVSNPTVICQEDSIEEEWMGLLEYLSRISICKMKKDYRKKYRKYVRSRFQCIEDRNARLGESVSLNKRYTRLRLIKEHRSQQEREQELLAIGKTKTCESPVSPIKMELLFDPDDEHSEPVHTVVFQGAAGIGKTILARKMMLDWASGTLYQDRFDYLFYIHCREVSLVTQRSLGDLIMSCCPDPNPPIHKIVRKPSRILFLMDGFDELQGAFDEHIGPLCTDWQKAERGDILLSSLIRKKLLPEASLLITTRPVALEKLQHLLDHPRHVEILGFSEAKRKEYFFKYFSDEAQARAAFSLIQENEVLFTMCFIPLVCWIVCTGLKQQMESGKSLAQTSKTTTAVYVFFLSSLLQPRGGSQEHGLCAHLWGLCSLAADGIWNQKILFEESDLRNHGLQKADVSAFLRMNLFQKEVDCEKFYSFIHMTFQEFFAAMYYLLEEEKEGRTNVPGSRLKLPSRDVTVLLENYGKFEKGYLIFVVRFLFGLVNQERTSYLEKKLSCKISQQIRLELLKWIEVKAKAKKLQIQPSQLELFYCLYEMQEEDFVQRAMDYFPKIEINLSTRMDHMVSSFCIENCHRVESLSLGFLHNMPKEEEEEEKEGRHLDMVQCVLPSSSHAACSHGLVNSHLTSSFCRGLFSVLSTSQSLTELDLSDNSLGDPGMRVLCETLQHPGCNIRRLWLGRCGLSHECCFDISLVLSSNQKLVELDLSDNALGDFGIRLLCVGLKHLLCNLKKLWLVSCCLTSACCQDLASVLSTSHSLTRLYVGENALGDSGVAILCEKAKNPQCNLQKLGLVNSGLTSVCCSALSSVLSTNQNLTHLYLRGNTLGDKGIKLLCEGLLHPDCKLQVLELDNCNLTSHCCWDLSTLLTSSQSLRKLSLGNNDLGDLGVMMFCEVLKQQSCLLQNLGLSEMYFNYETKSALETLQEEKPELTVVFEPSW

CC1=CC(=O)c2ccccc2C1=O [menadione, 2-methyl-1,4-naphthoquinone]
biofilm reduction by menadione without irradiation ([1]; 48 h biofilm, dark): < 1 log killing | biofilm eradicated by menadione plus aBL ([1]; 48 h biofilm, 100 μg/mL menadione + aBL 250 J/cm^2 (50 mW/cm^2)): 4.8 log10 CFU/mL | enhancement of killing in comparison with aBL alone ([1]; 48 h in vitro biofilm, menadione + aBL): 1 log-fold | fluorescence signal of ROS probes, menadione exposed to blue light ([2]; 405 nm, DCF-DA, SOSG, HPF): higher fluorescence signal | fluorescence signal of ROS probes, menadione dark group ([2]; no irradiation): negligible | MIC ([3]; Escherichia coli, light or radiation study, 5 min, aBL 15.62 J/cm^2 (5 mins.), 50 mW/cm^2, read-out: MIC): 256 µg/mL | MIC ([3]; Escherichia coli, light or radiation study, 0.175 h, aBL 31.25 J/cm^2 (10.5 mins.), 50 mW/cm^2, read-out: MIC): 256 µg/mL | MIC ([3]; Escherichia coli, light or radiation study, 0.35 h, aBL 62.5 J/cm^2 (21 mins.), 50 mW/cm^2, read-out: MIC): 4 µg/mL | MIC ([3]; Escherichia coli, light or radiation study, 0 J/cm^2 (Dark), read-out: MIC): 512 µg/mL | MIC ([3]; aBL 125 J/cm^2 (42 mins.), 50 mW/cm^2): completely eradicated | inhibition of NLRP3 inflammasome [4]: selective, potent inhibitor
